# Source: US7601716B2, “Pyridopyrazines and derivatives thereof as ALK and c-Met inhibitors” (Cephalon, Inc., priority 2006, dated 2009)
# Molecular target: baculovirus-expressed ALK (Homo sapiens, UniProt Q9UM73)
# Test: ALK Kinase Assay (ELISA/TRF, PLC-γ substrate); further: 1 µM ATP (Km level)
# Type: biochemical
# Details: read-out: ALK Kinase Inhibition (IC50)
# In short: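 An ELISA adapted from a trkA format was used: wells carried GST-fused PLC-γ substrate, and enzyme addition (30 ng/ml ALK) started a 15-minute reaction at 37° C.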
# Chain of baculovirus-expressed ALK (Q9UM73 19-1620): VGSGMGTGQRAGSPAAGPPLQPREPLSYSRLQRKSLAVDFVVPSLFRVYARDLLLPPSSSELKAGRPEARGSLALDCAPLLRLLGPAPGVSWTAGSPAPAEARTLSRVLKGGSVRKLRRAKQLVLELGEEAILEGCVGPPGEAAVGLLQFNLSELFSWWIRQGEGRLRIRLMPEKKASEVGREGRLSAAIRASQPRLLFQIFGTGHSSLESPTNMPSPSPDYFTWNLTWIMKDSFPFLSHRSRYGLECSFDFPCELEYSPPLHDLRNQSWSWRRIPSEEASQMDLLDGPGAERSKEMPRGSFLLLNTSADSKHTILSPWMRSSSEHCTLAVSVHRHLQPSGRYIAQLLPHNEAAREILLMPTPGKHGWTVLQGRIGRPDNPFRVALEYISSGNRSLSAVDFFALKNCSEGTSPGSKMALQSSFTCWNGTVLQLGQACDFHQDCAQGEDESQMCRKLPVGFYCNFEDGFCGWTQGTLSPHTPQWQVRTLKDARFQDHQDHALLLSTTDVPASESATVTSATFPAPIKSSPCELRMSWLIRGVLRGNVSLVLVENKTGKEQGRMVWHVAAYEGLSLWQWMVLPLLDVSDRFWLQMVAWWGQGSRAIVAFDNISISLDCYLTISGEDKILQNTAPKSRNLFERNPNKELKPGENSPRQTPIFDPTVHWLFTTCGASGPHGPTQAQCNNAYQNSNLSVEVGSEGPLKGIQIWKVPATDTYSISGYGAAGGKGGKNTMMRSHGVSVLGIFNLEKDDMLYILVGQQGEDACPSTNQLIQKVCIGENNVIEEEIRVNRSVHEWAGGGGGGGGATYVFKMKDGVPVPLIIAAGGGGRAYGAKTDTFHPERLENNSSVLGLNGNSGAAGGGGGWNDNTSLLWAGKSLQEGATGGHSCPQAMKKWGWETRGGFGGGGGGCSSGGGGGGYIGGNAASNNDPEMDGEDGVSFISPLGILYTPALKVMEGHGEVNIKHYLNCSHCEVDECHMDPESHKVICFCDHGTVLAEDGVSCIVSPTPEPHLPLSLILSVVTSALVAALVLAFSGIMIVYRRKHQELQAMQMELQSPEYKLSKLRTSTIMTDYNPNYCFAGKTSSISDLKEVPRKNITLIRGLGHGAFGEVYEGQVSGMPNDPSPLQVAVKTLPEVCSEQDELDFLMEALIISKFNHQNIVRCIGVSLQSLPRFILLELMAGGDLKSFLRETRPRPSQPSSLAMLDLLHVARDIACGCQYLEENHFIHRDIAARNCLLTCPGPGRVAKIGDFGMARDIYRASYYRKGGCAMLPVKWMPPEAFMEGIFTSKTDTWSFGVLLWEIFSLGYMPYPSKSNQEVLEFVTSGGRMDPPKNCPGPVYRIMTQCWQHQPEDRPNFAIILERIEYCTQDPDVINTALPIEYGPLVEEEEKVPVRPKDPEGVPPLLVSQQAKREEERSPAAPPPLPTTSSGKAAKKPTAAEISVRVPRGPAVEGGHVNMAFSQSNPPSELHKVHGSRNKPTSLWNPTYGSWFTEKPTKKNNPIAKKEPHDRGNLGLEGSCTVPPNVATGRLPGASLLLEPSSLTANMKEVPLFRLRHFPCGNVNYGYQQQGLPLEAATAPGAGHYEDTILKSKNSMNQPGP
row,Compound,IC50
1,"Cc1cc(N2CCN(C(=O)c3cccc(-c4cnc5c(c4)N(Cc4cc(Cl)ccc4C(F)(F)F)CCN5)c3)CC2)c2ccccc2n1 [Example 337, (3-{1-[5-Chloro-2-(trifluoromethyl)benzyl]-1,2,3,4-tetrahydropyrido[2,3-b]pyrazin-7-yl}phenyl)-[4-(2-methylquinolin-4-yl)piperazin-1-yl]methanone]",100 to 1000 nM
2,"O=C(NCc1ccccc1Cl)c1cccc(-c2cnc3c(c2)N(Cc2cc(Cl)ccc2C(F)(F)F)CCN3)c1 [Example 348, N-(2-Chlorobenzyl)-3-{1-[5-Chloro-2-(trifluoromethyl)benzyl]-1,2,3,4-tetrahydropyrido[2,3-b]pyrazin-7-yl}benzamide]",100 to 1000 nM
3,"CC(=O)N1CCN(C(=O)c2ccc(-c3cnc4c(c3)N(Cc3cc(Cl)ccc3C(F)(F)F)CCN4)cc2)CC1 [Example 392, 1-[4-(4-{1-[5-Chloro-2-(trifluoromethyl)benzyl]-1,2,3,4-tetrahydropyrido[2,3-b]pyrazin-7-yl}benzoyl)piperazin-1-yl]ethanone]",< 100 nM
4,"O=C(c1cccc(-c2cnc3c(c2)N(Cc2cc(Cl)ccc2C(F)(F)F)CCN3)c1)N1CCN(c2cccc(C(F)(F)F)c2)CC1 [Example 312, (3-{1-[5-Chloro-2-(trifluoromethyl)benzyl]-1,2,3,4-tetrahydropyrido[2,3-b]pyrazin-7-yl}phenyl)-{4-[3-(trifluoromethyl)phenyl]piperazin-1-yl}methanone]",100 to 1000 nM
5,"O=C(NC1Cc2ccccc2C1)c1ccc(-c2cnc3c(c2)N(Cc2cc(Cl)ccc2C(F)(F)F)CCN3)cc1 [Example 423, 4-{1-[5-Chloro-2-(trifluoromethyl)benzyl]-1,2,3,4-tetrahydropyrido[2,3-b]pyrazin-7-yl}-N-indan-2-ylbenzamide]",100 to 1000 nM
6,"O=C(c1ccc(-c2cnc3c(c2)N(Cc2cc(Cl)ccc2C(F)(F)F)CCN3)cc1)N1CCN(c2ncnc3ccsc23)CC1 [Example 382, (4-{1-[5-Chloro-2-(trifluoromethyl)benzyl]-1,2,3,4-tetrahydropyrido[2,3-b]pyrazin-7-yl}phenyl)-(4-thieno[3,2-d]pyrimidin-4-yl-piperazin-1-yl)methanone]",100 to 1000 nM
7,"O=C(NCC1CCCO1)c1cccc(-c2cnc3c(c2)N(Cc2cc(Cl)ccc2C(F)(F)F)CCN3)c1 (centres unmarked) [Example 352, 3-{1-[5-Chloro-2-(trifluoromethyl)benzyl]-1,2,3,4-tetrahydropyrido[2,3-b]pyrazin-7-yl}-N-(tetrahydrofuran-2-ylmethyl)benzamide]",100 to 1000 nM
8,"O=C(c1ccc(-c2cnc3c(c2)N(Cc2cc(Cl)ccc2C(F)(F)F)CCN3)cc1)N1CCN(c2nccc3occc23)CC1 [Example 386, (4-{1-[5-Chloro-2-(trifluoromethyl)benzyl]-1,2,3,4-tetrahydropyrido[2,3-b]pyrazin-7-yl}phenyl)-(4-furo[3,2-c]pyridin-4-ylpiperazin-1-yl)methanone]",100 to 1000 nM
9,"O=C(c1cccc(-c2cnc3c(c2)N(Cc2cc(Cl)ccc2C(F)(F)F)CCN3)c1)N1CCN(c2ccc(Cl)cc2)CC1 [Example 308, [4-(4-Chlorophenyl)-piperazin-1-yl]-(3-{1-[5-Chloro-2-(trifluoromethyl)benzyl]-1,2,3,4-tetrahydropyrido[2,3-b]pyrazin-7-yl}phenyl)methanone]",100 to 1000 nM
10,"O=C(NCc1ccc(-c2ccccc2)cc1)c1ccc(-c2cnc3c(c2)N(Cc2cc(Cl)ccc2C(F)(F)F)CCN3)cc1 [Example 425, N-Biphenyl-4-ylmethyl-4-{1-[5-Chloro-2-(trifluoromethyl)benzyl]-1,2,3,4-tetrahydropyrido[2,3-b]pyrazin-7-yl}benzamide]",1000 to 10000 nM
11,"O=C(NCCc1ccccc1)c1ccc(-c2cnc3c(c2)N(Cc2cc(Cl)ccc2C(F)(F)F)CCN3)cc1 [Example 416, 4-{1-[5-Chloro-2-(trifluoromethyl)benzyl]-1,2,3,4-tetrahydropyrido[2,3-b]pyrazin-7-yl}-N-phenethylbenzamide]",100 to 1000 nM
12,"O=C(c1cccc(-c2cnc3c(c2)N(Cc2cc(Cl)ccc2C(F)(F)F)CCN3)c1)N1CCN(c2ncccn2)CC1 [Example 307, (3-{1-[5-Chloro-2-(trifluoromethyl)benzyl]-1,2,3,4-tetrahydropyrido[2,3-b]pyrazin-7-yl}phenyl)-(4-pyrimidin-2-ylpiperazin-1-yl)methanone]",100 to 1000 nM
13,"O=C(c1ccc(-c2cnc3c(c2)N(Cc2cc(Cl)ccc2C(F)(F)F)CCN3)cc1)N1CCC(Cc2ccccc2)CC1 [Example 378, (4-Benzylpiperidin-1-yl)-(4-{1-[5-chloro-2-(trifluoromethyl)benzyl]-1,2,3,4-tetrahydropyrido[2,3-b]pyrazin-7-yl}phenyl)methanone]",1000 to 10000 nM
14,"O=C(c1ccc(-c2cnc3c(c2)N(Cc2cc(Cl)ccc2C(F)(F)F)CCN3)cc1)N1CCN(c2ccccc2)CC1 [Example 368, (4-{1-[5-Chloro-2-(trifluoromethyl)benzyl]-1,2,3,4-tetrahydropyrido[2,3-b]pyrazin-7-yl}phenyl)-(4-phenylpiperazin-1-yl)methanone]",100 to 1000 nM
15,"O=C(c1ccc(-c2cnc3c(c2)N(Cc2cc(Cl)ccc2C(F)(F)F)CCN3)cc1)N1CCN(c2cccc(Cl)c2)CC1 [Example 422, [4-(3-Chlorophenyl)piperazin-1-yl]-(4-{1-[5-chloro-2-(trifluoromethyl)benzyl]-1,2,3,4-tetrahydropyrido[2,3-b]pyrazin-7-yl}phenyl)methanone]",100 to 1000 nM
16,"O=C(c1cccc(-c2cnc3c(c2)N(Cc2cc(Cl)ccc2C(F)(F)F)CCN3)c1)N1CCC(O)(c2ccc(Cl)cc2)CC1 [Example 309, [4-(4-Chlorophenyl)-4-hydroxypiperidin-1-yl]-(3-{1-[5-Chloro-2-(trifluoromethyl)benzyl]-1,2,3,4-tetrahydropyrido[2,3-b]pyrazin-7-yl}phenyl)methanone]",100 to 1000 nM
17,"O=C(NC1CCN(Cc2ccccc2)C1)c1ccc(-c2cnc3c(c2)N(Cc2cc(Cl)ccc2C(F)(F)F)CCN3)cc1 (centres unmarked) [Example 427, N-(1-Benzylpyrrolidin-3-yl)-4-{1-[5-chloro-2-(trifluoromethyl)benzyl]-1,2,3,4-tetrahydropyrido[2,3-b]pyrazin-7-yl}benzamide]",100 to 1000 nM
18,"COc1ccc(CNC(=O)c2ccc(-c3cnc4c(c3)N(Cc3cc(Cl)ccc3C(F)(F)F)CCN4)cc2)cc1 [Example 419, 4-{1-[5-Chloro-2-(trifluoromethyl)benzyl]-1,2,3,4-tetrahydropyrido[2,3-b]pyrazin-7-yl}-N-(4-methoxybenzyl)benzamide]",100 to 1000 nM
19,"O=C(c1ccc(-c2cnc3c(c2)N(Cc2cc(Cl)ccc2C(F)(F)F)CCN3)cc1)N1CCC[C@H]1CN1CCCC1 [Example 430, (4-{1-[5-Chloro-2-(trifluoromethyl)benzyl]-1,2,3,4-tetrahydropyrido[2,3-b]pyrazin-7-yl}phenyl)-((S)-2-pyrrolidin-1-ylmethylpyrrolidin-1-yl)methanone]",< 100 nM
20,"O=C(c1ccc(-c2cnc3c(c2)N(Cc2cc(Cl)ccc2C(F)(F)F)CCN3)cc1)N1CCN(c2cnccn2)CC1 [Example 406, (4-{1-[5-Chloro-2-(trifluoromethyl)benzyl]-1,2,3,4-tetrahydropyrido[2,3-b]pyrazin-7-yl}phenyl)-(2,3,5,6-tetrahydro[1,2′]bipyrazinyl-4-yl)methanone]",< 100 nM
